Reference: ChEMBL document CHEMBL1138534, “Cellular effects of reversed amidines on Trypanosoma cruzi” (Antimicrob Agents Chemother, 2007)
pIC50: −log10 of the molar value. Active and inactive are the calls of the source. No cut-off for these calls is given here.

What was measured:
Trypanosoma cruzi [1] = assay: Antitrypanosomal activity against Trypanosoma cruzi Y amastigotes assessed as vacuolization and loss of cytoplasm components at IC50 after 24 hrs by transmission electron microscopy; type: functional, organism-based
Trypanosoma cruzi [2] = assay: Antitrypanosomal activity against Trypanosoma cruzi Y bloodstream trypomastigotes assessed as alteration in nuclear morphology after 24 hrs by transmission electron micrograph; type: functional, organism-based
Trypanosoma cruzi [3] = assay: Antitrypanosomal activity against Trypanosoma cruzi Y amastigotes assessed as alteration in nuclear morphology at IC50 after 24 hrs by transmission electron microscopy; type: functional, organism-based
Trypanosoma cruzi [4] = assay: Antitrypanosomal activity against Trypanosoma cruzi Y amastigotes assessed as disorganization of kinetoplast at IC50 after 24 hrs by transmission electron microscopy; type: functional, organism-based
Trypanosoma cruzi [5] = assay: Antitrypanosomal activity against Trypanosoma cruzi Y bloodstream trypomastigotes assessed as parasite lysis at 3.5 uM after 24 hrs by light microscope; type: functional
Trypanosoma cruzi [6] = assay: Antitrypanosomal activity against Trypanosoma cruzi Y bloodstream trypomastigotes after 24 hrs by light microscope; type: functional, organism-based
Trypanosoma cruzi [7] = assay: Antitrypanosomal activity against Trypanosoma cruzi Y bloodstream trypomastigotes assessed as swelling in mitochondria and kinetoplast after 24 hrs by transmission electron micrograph; type: functional, organism-based
Trypanosoma cruzi [8] = assay: Antitrypanosomal activity against Trypanosoma cruzi Y bloodstream trypomastigotes assessed as reduction in mitochondrial membrane potential at IC50 after 24 hrs by flow cytometry; type: functional; set-up: scale not given: the % may be the effect or the level left
Trypanosoma cruzi [9] = assay: Antitrypanosomal activity against Trypanosoma cruzi Y amastigotes after 24 hrs by light microscope; type: functional, organism-based
Trypanosoma cruzi [10] = assay: Antitrypanosomal activity against Trypanosoma cruzi Y bloodstream trypomastigotes assessed as parasite death at 3.5 uM after 24 hrs by light microscope; type: functional
Trypanosoma cruzi [11] = assay: Antitrypanosomal activity against Trypanosoma cruzi Y amastigotes assessed as intense vesicular profile in flageller pocket at IC50 after 24 hrs by transmission electron microscopy; type: functional, organism-based
Trypanosoma cruzi [12] = assay: Antitrypanosomal activity against Trypanosoma cruzi Y bloodstream trypomastigotes assessed as microtubule axoneme structure after 24 hrs by transmission electron micrograph; type: functional, organism-based
Trypanosoma cruzi [13] = assay: Antitrypanosomal activity against Trypanosoma cruzi Y bloodstream trypomastigotes at 1.18 uM after 2 hrs by light microscope; type: functional
Trypanosoma cruzi [14] = assay: Antitrypanosomal activity against Trypanosoma cruzi Y bloodstream trypomastigotes assessed as alteration in microtubule organization after 24 hrs by transmission electron micrograph; type: functional, organism-based
Trypanosoma cruzi [15] = assay: Antitrypanosomal activity against Trypanosoma cruzi Y bloodstream trypomastigotes assessed as parasite death at 32 uM after 2 hrs by light microscope; type: functional
Trypanosoma cruzi [16] = assay: Antitrypanosomal activity against Trypanosoma cruzi Y bloodstream trypomastigotes assessed as parasite death at 32 uM after 24 hrs by light microscope; type: functional
Trypanosoma cruzi [17] = assay: Antitrypanosomal activity against Trypanosoma cruzi Y bloodstream trypomastigotes assessed as alteration in mitochondria-kinetoplast complex after 24 hrs by transmission electron micrograph; type: functional, organism-based
Trypanosoma cruzi [18] = assay: Antitrypanosomal activity against Trypanosoma cruzi Y bloodstream trypomastigotes assessed as intracellular dilated membrane profile after 24 hrs by transmission electron micrograph; type: functional, organism-based
Trypanosoma cruzi [19] = assay: Antitrypanosomal activity against Trypanosoma cruzi Y amastigotes assessed as disorganization of subpellicular mitochondria at IC50 after 24 hrs by transmission electron microscopy; type: functional, organism-based
Trypanosoma cruzi [20] = assay: Antitrypanosomal activity against Trypanosoma cruzi Y bloodstream trypomastigotes assessed as parasite death at 0.014 uM after 24 hrs by light microscope; type: functional
Trypanosoma cruzi [21] = assay: Antitrypanosomal activity against Trypanosoma cruzi Y amastigotes assessed as swelling and electrodense mitochondria at IC50 after 24 hrs by transmission electron microscopy; type: functional, organism-based

With `N=C(Nc1ccc(-c2cc(-c3ccccc3)c(-c3ccc(NC(=N)c4ccccn4)cc3)o2)cc1)c1ccccn1` the Activity (Trypanosoma cruzi [1]) was “Active”, the Activity (Trypanosoma cruzi [2]) was “Active” and the Activity (Trypanosoma cruzi [3]) was “Active”. The Activity (Trypanosoma cruzi [4]) was “Active”, the Activity (Trypanosoma cruzi [5]) was “Active” and the pIC50 (Trypanosoma cruzi [6]) was 7.05. The Activity (Trypanosoma cruzi [7]) was “Active”, the Activity (Trypanosoma cruzi [8]) was 59% and the pIC50 (Trypanosoma cruzi [9]) was 8.07. The Activity (Trypanosoma cruzi [10]) was 100%, the Activity (Trypanosoma cruzi [11]) was “Active” and the Activity (Trypanosoma cruzi [12]) was “Active”. It also gave an Activity (Trypanosoma cruzi [13]) of 55%.

With `COc1cc(NC(=N)N)ccc1-c1ccc(-c2ccc(NC(=N)N)cc2OC)o1` the pIC50 (Trypanosoma cruzi [6]) was 4.71, the Activity (Trypanosoma cruzi [7]) was “Active” and the Activity (Trypanosoma cruzi [14]) was “Active”. For the same compound, the Activity (Trypanosoma cruzi [8]) was “inactive”, the pIC50 (Trypanosoma cruzi [9]) was < 4.97 and the Activity (Trypanosoma cruzi [15]) was 23%. The Activity (Trypanosoma cruzi [16]) was 84%, the Activity (Trypanosoma cruzi [17]) was “Active” and the Activity (Trypanosoma cruzi [18]) was “Active”. For the same compound, the Activity (Trypanosoma cruzi [12]) was “Active”.

In the case of `Cc1ccc(C(=N)Nc2ccc(-c3ccc(-c4ccc(NC(=N)c5ccc(C)cn5)cc4OC(C)C)o3)c(OC(C)C)c2)nc1`, the Activity (Trypanosoma cruzi [19]) was “Active”, the Activity (Trypanosoma cruzi [5]) was 50% and the pIC50 (Trypanosoma cruzi [6]) was 7.82. It also gave an Activity (Trypanosoma cruzi [8]) of 55%, a pIC50 (Trypanosoma cruzi [9]) of 5.94 and an Activity (Trypanosoma cruzi [20]) of 49%. It also gave an Activity (Trypanosoma cruzi [10]) of 95%.

`Cc1cc(NC(=N)c2ccccn2)ccc1-c1ccc(-c2ccc(NC(=N)c3ccccn3)cc2C)o1` was tested, and the Activity (Trypanosoma cruzi [5]) was 55%, the pIC50 (Trypanosoma cruzi [6]) was 6.35 and the Activity (Trypanosoma cruzi [21]) was “Active”. For the same compound, the Activity (Trypanosoma cruzi [8]) was 54%, the pIC50 (Trypanosoma cruzi [9]) was 6.62 and the Activity (Trypanosoma cruzi [10]) was 95%. The Activity (Trypanosoma cruzi [11]) was “Active”.
